{
  "source": "patent US20240390457A1",
  "about": "“COMPOSITION AND METHOD OF TREATING BRAIN CANCER” (Morehouse School of Medicine, priority 2023, published 2024)",
  "key": {"A172 cells [1]": {"test_system": "A172 cells", "assay": "Transwell migration assay, A172", "type": "cell-based, human", "conditions": "PcTX1 20 nM, pH 7.0 for 3 h, counted after 24 h", "experimental": "(§1) The assay is based on two compartments separated by a mem-brane with an accurately defined pore size. Cell transwell chambers with 8-μm pore size of poly-carbonate membrane filters (Corning, USA) were first pre-coated with poly-L-ornithine over-night. Before plating cells, chambers were incubated with serum-free culture medium for 30 minutes. After that, cells were seeded with culture medium containing 1% FBS in the upper-chambers that were immersed to 750 μl whole medium (DMEM with 10% FBS). After incubating for another 24 hours, some cells on the upper surface of the filter migrated through the membrane to the lower surface of the filter. Cells on the upper face of the filter were wiped out thoroughly with cotton swabs, and those attached on the lower surface were fixed with 4% paraformaldehyde for 15 min. They were then stained with 0.5% crystal violet for 10 min, and let the membrane air dry. The cells on the lower surface of the membrane filter were counted under a microscope in 3-4 random fields with 10× magnification. Cell numbers in each group were normalized to the control groups. Assays were performed in at least 3 independent experiments.\nTo further examine the role of ASIC1 in glioma cell migration, the study performed a transwell migration assay using inserts with an 8-μm pore size. […]"}, "A172 cells [2]": {"test_system": "A172 cells", "assay": "Wound-healing assay, A172", "type": "cell-based, human", "conditions": "weak acid pH 7.0", "experimental": "(§2) Wound-healing assay was performed. Cells were seeded into a 24-well plate and grown to ˜80% confluence. The cell monolayer was scratched with 200 μl sterile pipette tip and treated with ECF with or without PcTX1 for 3 hours. The original wound areas at 0 hour were photographed with microscope (Olympus FSX100, 4×). After 3 hours, cells were then incubated with culture medium containing 1% FBS for 24 hours. 24 hours later, images were taken from the same location of the original wound areas and the migration distance was measured with Image J software. The wound-healing rate was calculated as: the ratio of wound closure=[(Area of original wound at 0 h−Area of wound after healing at 24 h)/Area of original wound at 0 h]×100%."}, "U87MG cells [3]": {"test_system": "U87MG cells", "assay": "Cell viability (MTT) proliferation assay, U87MG", "type": "cell-based, human", "conditions": "20 nM PcTX1 with weak acid (pH 7.0), 3 h; different time points", "experimental": "(§3) Cells were seeded in 96-well plates overnight and then incubated with pH 7.4 or 7.0 ECF in the absence or presence of 20 nM PcTX1 for 3 h, and then changed to culture medium containing 5% FBS incubating for 24 h, 48 h and 72 h. After the treatments, cell viability was measured by MTT Cell Proliferation Assay Kit according to the manufacturer's instructions. The absorbance values at 540 nm were detected by spectrometer (Molecular devices).\n(§4) Severe acidosis (e.g. pH 6.0) promotes the proliferation of some type of glioma cells. This study first tested the effect of weak acid on the proliferation of A172 and U87MG cells. The study used either pH 7.4 or pH 7.0 solution to pretreat cells for 3 h, and then changed back to medium containing 5% FBS. The cell viability was measured at 24 h, 48 h and 72 h after acid treatment by MTT assay.\n(§5) Next, the study examined whether knock-down of ASIC1 affects cell proliferation in the presence or absence of extracellular weak acid. MTT assay was performed to detect the cell viability at 24 h and 72 h with and without acid treatment both in siRNA-Control and siRNA-ASIC1 groups. […] The study further examined whether knockdown of ASIC1 has an effect on the migration of U87MG cells. […] The effect of ASIC1 knockdown on migration was also assessed by transwell."}, "U87MG cells [4]": {"test_system": "U87MG cells", "assay": "Wound-healing assay, U87MG", "type": "cell-based, human", "conditions": "weak acid pH 7.0", "experimental": "as §2, §5"}, "U87MG cells [5]": {"test_system": "U87MG cells", "assay": "Transwell migration assay, U87MG", "type": "cell-based, human", "conditions": "PcTX1, pH 7.0 for 3 h, counted after 24 h", "experimental": "as §1, with “experiments. […]” for “experiments.”\nNext, the study examined whether knock-down of ASIC1 affects cell proliferation in the presence or absence of extracellular weak acid. […] The effect of ASIC1 knockdown on migration was also assessed by transwell."}, "ASIC1": {"target": "T1, ASIC1 (Homo sapiens, UniProt P78348)", "T1 construct": "drop of extra-cellular pH from 7.4 to 6.0 can induce transient inward currents in A172 and U87MG cells; endogenous in cells; host or cells: U87MG human glioblastoma cells (ATCC)", "T1 sequence (P78348 1-528)": "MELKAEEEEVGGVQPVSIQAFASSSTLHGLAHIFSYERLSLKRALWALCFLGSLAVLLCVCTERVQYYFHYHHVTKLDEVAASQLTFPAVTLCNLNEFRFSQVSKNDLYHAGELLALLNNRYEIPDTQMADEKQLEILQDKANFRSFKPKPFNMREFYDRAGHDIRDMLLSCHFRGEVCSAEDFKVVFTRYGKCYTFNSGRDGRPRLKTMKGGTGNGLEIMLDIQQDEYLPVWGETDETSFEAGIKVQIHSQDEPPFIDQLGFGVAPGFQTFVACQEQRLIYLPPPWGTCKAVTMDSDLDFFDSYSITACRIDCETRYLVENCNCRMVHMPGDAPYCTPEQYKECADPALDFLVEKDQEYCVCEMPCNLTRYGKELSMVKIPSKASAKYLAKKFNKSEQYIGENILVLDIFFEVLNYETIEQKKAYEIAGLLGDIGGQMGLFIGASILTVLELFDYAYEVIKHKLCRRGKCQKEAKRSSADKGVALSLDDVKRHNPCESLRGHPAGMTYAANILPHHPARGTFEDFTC", "assay": "Whole-cell patch-clamp recording of acid-activated currents", "type": "cell-based", "conditions": "PcTX1 20 nM perfusion for several minutes; pH drop 7.4 to 6.0; U87MG cells; n=5", "experimental": "Whole-cell currents were recorded by patch-clamp techniques. The currents were recorded with an Axopatch 200B amplifier and low-pass filtered at 2 KHz, digitized using Digidata 1320 DAC unit. Cells were clamped at a holding potential of −80 mV. The patch pipettes were made from thin walled borosilicate glass micropipettes (1.5 mm diameter, World Precision Instruments, Sarasota, FL) by a micropipette puller (PP83; Tokyo, Japan). The range of pipette resistance was 3-5 MΩ when filled with intracellular solu-tion contained 140 mM CsF, 1 mM CaCl2, 2 mM MgCl2, 10 mM HEPES, 11 mM EGTA, 2 mM tet-raethylammonium chloride, and 4 mM MgATP; pH 7.3 adjusted with CsOH, 290 to 300 mOsm adjusted with sucrose. Cells were perfused with an extracellular fluid (ECF) contained 140 mM NaCl, 5.4 mM KCl, 2 mM CaCl2, 1 mM MgCl2, 10 mM Glucose, and 10 mM HEPES; pH 7.4 and 6.0 adjusted with NaOH, 320-330 mOsm. […] The data were recorded and analyzed with pClamp and Sigma Plot software.\nTo determine whether ASIC1 is expressed in human glioma cells, we first investigated the expression of ASIC1 protein in A172 and U87-MG cells by Western blotting. […] Next, the study detected the existence of acid-activated currents and the effect of pharmacologic agents on the currents. Acid-activated currents were recorded by whole cell patch-clamp. […]"}, "A172 cells [6]": {"test_system": "A172 cells", "assay": "Cell viability (MTT) proliferation assay, A172", "type": "cell-based, human", "conditions": "20 nM PcTX1, 3 h in pH 7.4 or 7.0 ECF; 24 h, 48 h and 72 h", "experimental": "as §3, §4"}},
  "note": "Where no end group is shown, it is not given here.",
  "data": [
    {"substance": "PcTX1 (LECWKRRRSFEVCVPKTPKT; ends and bridges not checked; cysteine pairing not given here)", "values": [
      {"measurement": "effect on acid induced migration of A172 cells (transwell)", "setting": "A172 cells [1]", "value": "completely inhibited"},
      {"measurement": "effect on acid-induced migration of A172 cells (wound-healing and transwell, summary)", "setting": "A172 cells [2]", "value": "effectively blocked"},
      {"measurement": "effect on proliferation of U87MG cells (MTT)", "setting": "U87MG cells [3]", "value": "no clear effect"},
      {"measurement": "effect on acid-induced migration of U87MG cells (wound-healing and transwell, summary)", "setting": "U87MG cells [4]", "value": "effectively blocked"},
      {"measurement": "effect on acid-induced increase of migrated U87MG cells (transwell)", "setting": "U87MG cells [5]", "value": "completely blocked"},
      {"measurement": "decrease of the peak of acid-activated currents", "setting": "ASIC1", "value": 80, "unit": "%"},
      {"measurement": "effect on proliferation of A172 cells (MTT)", "setting": "A172 cells [6]", "value": "no influence"}
    ]}
  ]
}
